According to US20220265762A1, “COMPOSITION, COMPRISING TMEM176B OR AN EXPRESSION OR ACTIVITY REGULATOR THEREOF AS AN ACTIVE INGREDIENT, FOR PREVENTION OR TREATMENT OF DEGENERATIVE BRAIN DISEASE” (AMYLOID SOLUTION INC., priority 2019, published 2022):

Assays:
astrocyte [1] = assay: Phagocytic activity of astrocyte with overexpressed TMEM176B on FAM-labeled amyloid-beta oligomer; assay type: cell-based; conditions: virus-inoculated astrocytes treated with inhibitor at 0, 10, 50 μM; FIG. 3
Description: A TMEM176B-infected astrocyte and a normal astrocyte were separately cultured into wells of a 96-well black cell culture plate (by SPL) at a density of 50,000 cells per well, the plate using PriGrow IV medium containing 10% FBS (by GIBCO), penicillin/streptomycin (by Thermo), 10 ng/mL of human EGF (by Abm), and L-glutamine (by Abm). Here, only the astrocytes inoculated with the TMEM176B-adeno-associated virus were treated with the TMEM176B inhibitor at concentrations of 0 μM, 10 μM, and 50 μM, and then stabilized by incubation at 37° C. in a 5% CO2 incubator for 18 to 24 hours. FAM-labeled amyloid-beta (by Anaspec) was dissolved in cold PBS at a concentration of 5 μM, blocked from light, and stored in a refrigerator at 4° C. for 24 hours to prepare an oligomer. […] After 1 minute, trypan blue was removed, and the phagocytized oligomeric amyloid-beta was measured at an excitation wavelength of 485 nm/emission wavelength of 535 nm using a microplate reader capable of measuring fluorescence. […] After the incubation was completed, a washing process was performed thereon once with PBS, and the stained nuclei were measured at an excitation wavelength of 360 nm/emission wavelength of 465 nm using a microplate reader capable of measuring fluorescence.

astrocyte [2] = assay: Phagocytic activity of astrocyte on FAM-labeled amyloid-beta oligomer after TMEM176B inhibitor treatment; assay type: cell-based; conditions: inhibitor at 0, 3.703, 11.11, 33.33, 100 μM, FIG. 1
Description: In detail, BAYK8644 (by Merck) was used as a TMEM176B inhibitor, a method of confirming phagocytic activity of an astrocyte (by Abm) after treatment with the inhibitor was performed as follows. The astrocyte was cultured in a 96-well black cell culture plate (by SPL) using a PriGrow IV medium containing 10% FBS (by GIBCO), penicillin/streptomycin (by Thermo), human EGF 10 ng/mL (by Abm), and L-glutamine (by Abm), and incubation thereof was started at a density of 50,000 cells per well. Here, the TMEM176B inhibitor was treated at concentrations of 0 μM, 3.703 μM, 11.11 μM, 33.33 μM, and 100 μM, and the then the cells were stabilized by incubation at 37° C. in a 5% CO2 incubator for 18 to 24 hours. Fluorescent FAM-labeled amyloid-beta was dissolved in cold PBS (by Anaspec) at a concentration of 5 μM, blocked from light, and stored in a refrigerator at 4° C. for 24 hours to prepare amyloid-beta in oligomers. […] After 1 minute, trypan blue was removed by suction, and the phagocytized oligomeric amyloid-beta was measured at an excitation wavelength of 485 nm/emission wavelength of 535 nm using a microplate reader capable of measuring fluorescence. […] After the incubation was completed, a washing process was performed thereon once with PBS, and the stained nuclei were measured at an excitation wavelength of 360 nm/emission wavelength of 465 nm.

`COC(=O)C1=C(C)NC(C)=C([N+](=O)[O-])C1c1ccccc1C(F)(F)F` (centres unmarked) [TMEM176B inhibitor, BAYK8644] was tested, and the “phagocytosis of oligomeric amyloid-beta” value (astrocyte [1]) was “decreased in a concentration-dependent manner” and the “phagocytosis function on the amyloid-beta oligomer” value (astrocyte [2]) was “decreased the phagocytosis function”.
